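Growth conditions: 96-well plates. Treatment: test compound, 48 hours, 5 concentrations. Analysis: linear interpolation between bracketing concentrations; unreached endpoints set to highest concentration. Abbreviation: GI50, concentration required for 50% inhibition of growth.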 Activity calls are given as the source filed them. Cut-off read from the data, not from the text of the source: active = GI50 up to about 1.1 µM and inactive = higher.
Legend:
Assay in all cases: DTP human tumour cell line panel, 48 h
786-0 = test system: 786-0
DMS-114 = test system: DMS-114
KM12 = test system: KM12
OVCAR-8 = test system: OVCAR-8
OVCAR-5 = test system: OVCAR-5
UACC-257 = test system: UACC-257
CCRF-CEM = test system: CCRF-CEM
NCI-H522 = test system: NCI-H522
RPMI-8226 = test system: RPMI-8226
MOLT-4 = test system: MOLT-4
EKVX = test system: EKVX
SNB-75 = test system: SNB-75
KM-20L2 = test system: KM-20L2
HL-60 = test system: HL-60
SF-539 = test system: SF-539
HT-29 = test system: HT-29
XF498 = test system: XF498
UACC-62 = test system: UACC-62
K562 = test system: K562
U-251 = test system: U-251
RXF 631 = test system: RXF 631
HOP-62 = test system: HOP-62
SF-268 = test system: SF-268
RXF 393 = test system: RXF 393
NCI-H226 = test system: NCI-H226
Malme-3M = test system: Malme-3M
HCT-15 = test system: HCT-15
A498 = test system: A498
M19-MEL = test system: M19-MEL
SNB-78 = test system: SNB-78
M14 = test system: M14
SK-OV-3 = test system: SK-OV-3
OVCAR-3 = test system: OVCAR-3
TK-10 = test system: TK-10
A549 = test system: A549
ACHN = test system: ACHN
DMS-273 = test system: DMS-273
LOX IMVI = test system: LOX IMVI
HOP-92 = test system: HOP-92
SN12C = test system: SN12C
NCI-H460 = test system: NCI-H460
SNB-19 = test system: SNB-19
HCT-116 = test system: HCT-116
SF-295 = test system: SF-295
SK-MEL-28 = test system: SK-MEL-28
CAKI-1 = test system: CAKI-1
UO-31 = test system: UO-31
SK-MEL-5 = test system: SK-MEL-5
LXFL 529 = test system: LXFL 529
COLO 205 = test system: COLO 205
SW-620 = test system: SW-620
SK-MEL-2 = test system: SK-MEL-2
IGROV-1 = test system: IGROV-1
DLD-1 = test system: DLD-1
HCC 2998 = test system: HCC 2998
OVCAR-4 = test system: OVCAR-4
NCI-H23 = test system: NCI-H23
HOP-18 = test system: HOP-18
SR = test system: SR

In the case of `O=C1C=CC(=O)C12CCc1ccccc12`, the GI50 (786-0) is reported as > 100 µM (inactive), the GI50 (DMS-114) is reported as > 100 µM (inactive) and the GI50 (KM12) is reported as > 100 µM (inactive). The GI50 (OVCAR-8) was > 100 µM (inactive), the GI50 (OVCAR-5) was > 100 µM (inactive) and the GI50 (UACC-257) was > 100 µM (inactive). The GI50 (CCRF-CEM) was 28.5 µM (inactive), the GI50 (NCI-H522) was 16.7 µM (inactive) and the GI50 (RPMI-8226) was 12.1 µM (inactive). The GI50 (MOLT-4) was > 44.3 µM (inactive), the GI50 (EKVX) was > 100 µM (inactive) and the GI50 (SNB-75) was 51.2 µM (inactive). The GI50 (KM-20L2) was > 100 µM (inactive), the GI50 (HL-60) was 24.2 µM (inactive) and the GI50 (SF-539) was > 100 µM (inactive). For the same compound, the GI50 (HT-29) was > 95.3 µM (inactive), the GI50 (XF498) was > 100 µM (inactive) and the GI50 (UACC-62) was > 100 µM (inactive). For the same compound, the GI50 (K562) was 36.4 µM (inactive), the GI50 (U-251) was > 100 µM (inactive) and the GI50 (RXF 631) was > 100 µM (inactive). For the same compound, the GI50 (HOP-62) was > 100 µM (inactive), the GI50 (SF-268) was > 100 µM (inactive) and the GI50 (RXF 393) was > 94.6 µM (inactive). For the same compound, the GI50 (NCI-H226) was > 100 µM (inactive), the GI50 (Malme-3M) was > 100 µM (inactive) and the GI50 (HCT-15) was over 72.8 µM. For the same compound, the GI50 (A498) was > 100 µM (inactive), the GI50 (M19-MEL) was > 100 µM (inactive) and the GI50 (SNB-78) was > 100 µM (inactive). For the same compound, the GI50 (M14) was > 100 µM (inactive), the GI50 (SK-OV-3) was > 100 µM (inactive) and the GI50 (OVCAR-3) was > 100 µM (inactive). For the same compound, the GI50 (TK-10) was > 100 µM (inactive), the GI50 (A549) was > 100 µM (inactive) and the GI50 (ACHN) was > 100 µM (inactive). The GI50 (DMS-273) was > 100 µM (inactive), the GI50 (LOX IMVI) was > 60.8 µM (inactive) and the GI50 (HOP-92) was > 100 µM (inactive). The GI50 (SN12C) was > 100 µM (inactive), the GI50 (NCI-H460) was > 100 µM (inactive) and the GI50 (SNB-19) was > 100 µM (inactive). The GI50 (HCT-116) was > 100 µM (inactive), the GI50 (SF-295) was > 31.6 µM (inactive) and the GI50 (SK-MEL-28) was > 100 µM (inactive). For the same compound, the GI50 (CAKI-1) was > 31.6 µM (inactive), the GI50 (UO-31) was > 100 µM (inactive) and the GI50 (SK-MEL-5) was > 100 µM (inactive). The GI50 (LXFL 529) was > 100 µM (inactive), the GI50 (COLO 205) was 57.5 µM (inactive) and the GI50 (SW-620) was 64.7 µM (inactive). For the same compound, the GI50 (SK-MEL-2) was > 100 µM (inactive), the GI50 (IGROV-1) was > 100 µM (inactive) and the GI50 (DLD-1) was > 63.8 µM (inactive). For the same compound, the GI50 (HCC 2998) was > 100 µM (inactive), the GI50 (OVCAR-4) was > 100 µM (inactive) and the GI50 (NCI-H23) was > 100 µM (inactive). For the same compound, the GI50 (HOP-18) was > 33.2 µM (inactive).
For `N#CC(C(=O)CCCC(=O)Nc1ccccc1[N+](=O)[O-])c1c(Cl)cccc1Cl` (stereo unspecified), the GI50 (786-0) was > 100 µM (inactive), the GI50 (DMS-114) was > 100 µM (inactive) and the GI50 (KM12) was > 100 µM (inactive). For the same compound, the GI50 (OVCAR-8) was > 100 µM (inactive), the GI50 (OVCAR-5) was > 100 µM (inactive) and the GI50 (UACC-257) was > 100 µM (inactive). The GI50 (SR) was > 100 µM (inactive), the GI50 (CCRF-CEM) was > 100 µM (inactive) and the GI50 (NCI-H522) was > 100 µM (inactive). For the same compound, the GI50 (RPMI-8226) was > 100 µM (inactive), the GI50 (MOLT-4) was > 100 µM (inactive) and the GI50 (EKVX) was > 100 µM (inactive). The GI50 (SNB-75) was > 100 µM (inactive), the GI50 (KM-20L2) was > 100 µM (inactive) and the GI50 (HL-60) was 99.1 µM (inactive). For the same compound, the GI50 (SF-539) was > 100 µM (inactive), the GI50 (HT-29) was > 100 µM (inactive) and the GI50 (XF498) was > 100 µM (inactive). The GI50 (UACC-62) was > 100 µM (inactive), the GI50 (K562) was > 100 µM (inactive) and the GI50 (U-251) was > 100 µM (inactive). For the same compound, the GI50 (RXF 631) was > 100 µM (inactive), the GI50 (HOP-62) was > 100 µM (inactive) and the GI50 (SF-268) was > 100 µM (inactive). For the same compound, the GI50 (RXF 393) was > 100 µM (inactive), the GI50 (NCI-H226) was > 100 µM (inactive) and the GI50 (Malme-3M) was > 100 µM (inactive). For the same compound, the GI50 (HCT-15) was over 100 µM, the GI50 (A498) was > 100 µM (inactive) and the GI50 (M19-MEL) was > 100 µM (inactive). The GI50 (SNB-78) was > 100 µM (inactive), the GI50 (M14) was > 100 µM (inactive) and the GI50 (SK-OV-3) was > 100 µM (inactive). The GI50 (OVCAR-3) was > 100 µM (inactive), the GI50 (TK-10) was > 100 µM (inactive) and the GI50 (A549) was > 100 µM (inactive). For the same compound, the GI50 (ACHN) was > 100 µM (inactive), the GI50 (DMS-273) was > 100 µM (inactive) and the GI50 (HOP-92) was 61.9 µM (inactive). The GI50 (SN12C) was > 100 µM (inactive), the GI50 (NCI-H460) was > 100 µM (inactive) and the GI50 (SNB-19) was > 100 µM (inactive). For the same compound, the GI50 (HCT-116) was > 100 µM (inactive), the GI50 (SF-295) was > 100 µM (inactive) and the GI50 (SK-MEL-28) was > 100 µM (inactive). The GI50 (CAKI-1) was > 100 µM (inactive), the GI50 (UO-31) was > 100 µM (inactive) and the GI50 (SK-MEL-5) was > 100 µM (inactive). The GI50 (LXFL 529) was > 100 µM (inactive), the GI50 (COLO 205) was > 100 µM (inactive) and the GI50 (SW-620) was > 100 µM (inactive). For the same compound, the GI50 (SK-MEL-2) was > 100 µM (inactive), the GI50 (IGROV-1) was > 100 µM (inactive) and the GI50 (DLD-1) was > 100 µM (inactive). For the same compound, the GI50 (HCC 2998) was > 100 µM (inactive), the GI50 (OVCAR-4) was > 100 µM (inactive) and the GI50 (NCI-H23) was > 100 µM (inactive). The GI50 (HOP-18) was 31 µM (inactive).
